From patent US20040018561A1, “Peptide compounds and their use as protease substrates” (priority 2002, published 2004)
*1 amine or outer side, *2 acyl side, *3 side chain or, on linkers, in order; H or OH if unused. Where a SMILES comes first, the peptide text is derived from it. [ ]: non-standard residue; d: D form. The star is where a group is joined. Dnp = O=[N+]([O-])c1ccc(*)c([N+](=O)[O-])c1; X2 = O=C([C@H](CCCCOCc1ccccc1)N[*:1])[*:2]; X1 = O=C([C@H](CCCCOc1ccccc1)N[*:1])[*:2]; Mca = COc1ccc2c(CC(=O)*)cc(=O)oc2c1; Dap = NC[C@H](N)C(=O)O

Key:
[1] = octanol/water; Tao et al., J. Mol. Model. 1999; cited from earlier work
MMP-1 = biological target: T1, MMP-1 (Homo sapiens, UniProt P03956); assay: Km and kcat/Km of substrates with MMP-1; format: biochemical; details: summary of Table 1
T1 sequence (P03956 100-469): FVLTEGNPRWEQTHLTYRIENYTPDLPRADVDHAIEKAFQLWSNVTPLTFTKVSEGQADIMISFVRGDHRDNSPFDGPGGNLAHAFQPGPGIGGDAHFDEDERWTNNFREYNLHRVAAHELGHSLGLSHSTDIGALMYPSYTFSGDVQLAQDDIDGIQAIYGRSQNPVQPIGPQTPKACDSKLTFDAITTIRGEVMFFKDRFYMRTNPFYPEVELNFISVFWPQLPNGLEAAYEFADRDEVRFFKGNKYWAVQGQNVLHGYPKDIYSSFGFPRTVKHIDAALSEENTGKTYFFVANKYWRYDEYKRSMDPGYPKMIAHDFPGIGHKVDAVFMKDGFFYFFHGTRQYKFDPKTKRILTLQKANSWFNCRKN

MMP-7 = biological target: T2, MMP-7 (Homo sapiens, UniProt P09237); assay: Km and kcat/Km of substrates with MMP-7; format: biochemical; details: summary of Table 1
T2 sequence (P09237 95-267): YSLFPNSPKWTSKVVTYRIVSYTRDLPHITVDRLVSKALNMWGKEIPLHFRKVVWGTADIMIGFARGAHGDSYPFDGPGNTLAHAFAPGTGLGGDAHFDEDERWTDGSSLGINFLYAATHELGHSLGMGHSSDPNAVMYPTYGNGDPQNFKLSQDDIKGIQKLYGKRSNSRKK

Compound	Log D contribution in a peptide [1]	kcat with MMP-1 (in words) (MMP-1)	kcat with MMP-7 (in words) (MMP-7)
NCC(=O)O [glycine]	−0.22		
N[C@@H](CCC(=O)O)C(=O)O [glutamic acid]	−2.19		
COc1ccc2c(CC(=O)N[C@@H](CCCNC(=N)N)C(=O)N3CCC[C@H]3C(=O)N[C@@H](CC(C)C)C(=O)NCC(=O)N[C@@H](CCCCOCc3ccccc3)C(=O)N[C@@H](CNc3ccc([N+](=O)[O-])cc3[N+](=O)[O-])C(=O)N[C@@H](C)C(=O)N[C@@H](CCCNC(=N)N)C(=O)N[C@@H](CCC(=O)O)C(=O)N[C@@H](CCCNC(=N)N)C(N)=O)cc(=O)oc2c1 [Compound 20, N-2-[(7-methoxy-2-oxo-2H-chromen-4-yl)acetyl]-L-arginyl-L-prolyl-L-leucylglycyl-6-(benzyloxy)-L-norleucyl-3-[(2,4-dinitrophenyl)amino]-L-alanyl-L-alanyl-L-arginyl-L-alpha-glutamyl-L-argininamide] (Mca-RPLG[X2][Dap](Dnp)ARER-NH2)		low kcat or kcat of zero	low kcat or kcat of zero
NCCCC[C@H](N)C(=O)O [lysine]	−2.27		
COc1ccc2c(CC(=O)N[C@H](CCCNC(=N)N)C(=O)N3CCC[C@H]3C(=O)N[C@@H](CC(C)C)C(=O)NCC(=O)N[C@@H](CCCCOCc3ccccc3)C(=O)N[C@@H](CNc3ccc([N+](=O)[O-])cc3[N+](=O)[O-])C(=O)N[C@@H](C)C(=O)N[C@H](CCCNC(=N)N)C(=O)N[C@H](CCC(=O)O)C(=O)N[C@H](CCCNC(=N)N)C(N)=O)cc(=O)oc2c1 [Compound 21, N-2-[(7-methoxy-2-oxo-2H-chromen-4-yl)acetyl]-D-arginyl-L-prolyl-L-leucylglycyl-6-(benzyloxy)-L-norleucyl-3-[(2,4-dinitrophenyl)amino]-L-alanyl-L-alanyl-D-arginyl-D-alpha-glutamyl-D-argininamide] (Mca-[dR]PLG[X2][Dap](Dnp)A[dR][dE][dR]-NH2)		low kcat or kcat of zero	low kcat or kcat of zero
C[C@@H](O)[C@H](N)C(=O)O [threonine]	−0.26		
COc1ccc2c(CC(=O)N[C@H](CCCNC(=N)N)C(=O)N3CCC[C@H]3C(=O)N[C@@H](CC(C)C)C(=O)NCC(=O)N[C@@H](CCCCOc3ccccc3)C(=O)N[C@@H](CNc3ccc([N+](=O)[O-])cc3[N+](=O)[O-])C(=O)N[C@@H](C)C(=O)N[C@H](CCCNC(=N)N)C(=O)N[C@H](CCC(=O)O)C(=O)N[C@H](CCCNC(=N)N)C(N)=O)cc(=O)oc2c1 [Compound 25, N-2-[(7-methoxy-2-oxo-2H-chromen-4-yl)acetyl]-D-arginyl-L-prolyl-L-leucylglycyl-6-phenoxy-L-norleucyl-3-[(2,4-dinitrophenyl)amino]-L-alanyl-L-alanyl-D-arginyl-D-alpha-glutamyl-D-argininamide] (Mca-[dR]PLG[X1][Dap](Dnp)A[dR][dE][dR]-NH2)		low kcat or kcat of zero	low kcat or kcat of zero
C[C@H](N)C(=O)O [alanine]	−0.27		
N[C@@H](Cc1c[nH]cn1)C(=O)O [histidine]	−0.44		
N=C(N)NCCC[C@H](N)C(=O)O [arginine]	−1.65		
N[C@@H](CC(=O)O)C(=O)O [aspartic acid]	−2.06		
NC(=O)C[C@H](N)C(=O)O [asparagine]	−0.98		
